Drawing on US7176212B2, “2,4-diamino pyrimidine compounds having anti-cell proliferative activity” (AstraZeneca AB, priority 1998, dated 2007), this text covers IC50 for two molecules.

Each structure is given as a SMILES string.

One experiment has as its target T1, CDK4/Cyclin D1 (Homo sapiens, UniProt P11802).
T1 construct: CDK4 amino acids 1–303; made in house; host or cells: Sf21 (Spodoptera frugiperda) insect cells, baculovirus co-infection, vector pVL1393
In words: CDK inhibition assay (Scintillation Proximity Assay, GST-Retinoblastoma substrate). The format is biochemical. To be noted: in-vitro SPA kinase assay, CDK4/Cyclin D1, GST-Rb substrate; read-out: CDK4 inhibitory activity IC50. As for the experimental part:
The compounds were tested in an in vitro kinase assay in 96 well format using Scintillation Proximity Assay (SPA—obtained from Amersham) for measuring incorporation of [γ-33-P]-Adenosine Triphosphate into a test substrate (GST-Retinoblastoma). In each well was placed the compound to be tested (diluted in DMSO and water to correct concentrations) and in control wells either p16 as an inhibitor control or DMSO as a positive control.
Approximately 0.5 μl of CDK4/Cyclin D1 partially-purified enzyme (amount dependent on enzyme activity) diluted in 25 μl incubation buffer was added to each well then 20 μl of GST-Rb/ATP/ATP33 mixture (containing 0.5 μg GST-Rb and 0.2 μM ATP and 0.14 μCi [γ-33-P]-Adenosine Triphosphate), and the resulting mixture shaken gently, then incubated at room temperature for 60 minutes.
To each well was then added 150 μL stop solution containing (0.8 mg/well of Protein A-PVT SPA bead (Amersham)), 20 pM/well of Anti-Glutathione Transferase, Rabbit IgG (obtained from Molecular Probes), 61 mM EDTA and 50 mM HEPES pH 7.5 containing 0.05% sodium azide.
The plates were sealed with Topseal-S plate sealers, left for two hours then spun at 2500 rpm, 1124×g., for 5 minutes. The plates were read on a Topcount for 30 seconds per well. […]
For orientation: In a scintillation proximity assay essentially only radioactivity close to the scintillant gives light.

In experiment [1] the target is T2, human Focal Adhesion Kinase (FAK) (Homo sapiens, UniProt Q05397).
T2 construct: FAK (full length human cDNA described by Andre et al); made in house; host or cells: Sf21 (Spodoptera frugiperda) insect cells, baculovirus (pFastbac 1)
T2 sequence (Q05397 whole entry): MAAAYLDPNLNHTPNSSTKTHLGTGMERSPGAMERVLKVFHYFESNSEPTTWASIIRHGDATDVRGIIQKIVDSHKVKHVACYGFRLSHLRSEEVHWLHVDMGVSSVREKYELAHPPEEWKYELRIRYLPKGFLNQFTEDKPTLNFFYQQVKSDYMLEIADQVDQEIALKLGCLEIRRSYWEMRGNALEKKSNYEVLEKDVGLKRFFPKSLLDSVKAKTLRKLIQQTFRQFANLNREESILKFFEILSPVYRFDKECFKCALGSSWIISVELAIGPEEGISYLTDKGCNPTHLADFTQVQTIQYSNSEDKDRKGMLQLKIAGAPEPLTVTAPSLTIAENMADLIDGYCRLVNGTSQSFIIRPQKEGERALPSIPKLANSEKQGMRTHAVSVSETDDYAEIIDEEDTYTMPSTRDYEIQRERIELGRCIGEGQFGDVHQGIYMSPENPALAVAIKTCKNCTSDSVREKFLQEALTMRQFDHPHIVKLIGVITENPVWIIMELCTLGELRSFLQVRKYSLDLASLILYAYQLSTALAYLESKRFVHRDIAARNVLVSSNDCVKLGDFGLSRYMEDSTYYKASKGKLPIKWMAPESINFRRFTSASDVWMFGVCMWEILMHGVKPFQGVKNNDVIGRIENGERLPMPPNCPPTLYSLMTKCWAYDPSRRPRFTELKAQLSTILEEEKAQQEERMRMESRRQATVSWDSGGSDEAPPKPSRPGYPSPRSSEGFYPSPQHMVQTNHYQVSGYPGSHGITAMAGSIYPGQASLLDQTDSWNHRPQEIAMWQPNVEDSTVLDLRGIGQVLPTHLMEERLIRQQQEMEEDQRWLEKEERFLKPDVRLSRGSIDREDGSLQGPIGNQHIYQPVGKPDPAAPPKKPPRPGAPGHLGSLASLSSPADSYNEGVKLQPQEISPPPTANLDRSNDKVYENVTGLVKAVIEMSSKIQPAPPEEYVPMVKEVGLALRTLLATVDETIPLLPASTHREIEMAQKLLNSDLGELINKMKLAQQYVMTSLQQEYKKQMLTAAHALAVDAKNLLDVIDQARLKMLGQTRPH
In words: FAK3 kinase inhibition assay (in vitro enzyme ELISA). The format is biochemical. To be noted: Poly (Glu, Ala, Tyr) substrate, read-out: FAK inhibitory activity IC50. The method, then: A stock of substrate solution was prepared from a random copolymer containing tyrosine, for example Poly (Glu, Ala, Tyr) 6:3:1 (Sigma P3899), stored as 1 mg/ml stock in PBS at −20° C. and diluted 1 in 500 with PBS for plate coating.
The liquid was then discarded and the wells were washed twice with PBST.
(In general: An ELISA detects its analyte on a solid surface through an enzyme-linked reagent.)

T1 sequence (P11802 whole entry, the tested form may be a part): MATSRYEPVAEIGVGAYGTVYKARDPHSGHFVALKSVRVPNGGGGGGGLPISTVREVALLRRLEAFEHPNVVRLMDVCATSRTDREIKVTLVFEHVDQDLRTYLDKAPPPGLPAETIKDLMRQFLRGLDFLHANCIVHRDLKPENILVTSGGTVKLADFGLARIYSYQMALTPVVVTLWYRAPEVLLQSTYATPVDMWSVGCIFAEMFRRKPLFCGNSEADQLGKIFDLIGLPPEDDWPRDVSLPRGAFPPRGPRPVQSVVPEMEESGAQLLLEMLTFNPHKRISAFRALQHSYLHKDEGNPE
T1 sequence (P24385 whole entry partner, the tested form may be a part): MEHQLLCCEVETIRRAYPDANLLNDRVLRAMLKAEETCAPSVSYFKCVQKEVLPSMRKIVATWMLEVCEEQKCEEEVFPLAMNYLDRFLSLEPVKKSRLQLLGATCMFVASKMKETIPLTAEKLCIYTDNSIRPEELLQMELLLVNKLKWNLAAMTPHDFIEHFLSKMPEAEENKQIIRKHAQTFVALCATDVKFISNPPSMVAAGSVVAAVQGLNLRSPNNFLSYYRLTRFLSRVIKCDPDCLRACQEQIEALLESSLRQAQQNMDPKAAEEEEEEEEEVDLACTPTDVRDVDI

With `Cc1ccc(Nc2ccnc(Nc3ccc(OCC(O)CN(C)C)cc3)n2)c(Br)c1` (stereo not drawn) [Example 3, 2-{4-[3-(N,N-Dimethyl)amino-2-hydroxy-propoxy]anilino}-4-(2-bromo-4-methylanilino)pyrimidine], the IC50 (usually the midpoint of a concentration-inhibition curve) at CDK4/Cyclin D1 was found to be 600 nM; in experiment [1] it was 3300 nM.

With `CN(C)CC(O)COc1ccc(Nc2nccc(Nc3cc(Cl)ccc3Cl)n2)cc1` (stereo not drawn) [Example 11, 2-{4-[3-(N,N-Dimethyl)amino-2-hydroxy-propoxy]anilino}-4-(2,5-dichloroanilino)pyrimidine], on CDK4/Cyclin D1, the 50% inhibitory concentration (IC50) stood at 530 nM.
